{
  "source": "paper PMC9474773",
  "about": "“PARP targeted Auger emitter therapy with [^125I]PARPi-01 for triple-negative breast cancer” (EJNMMI Research, 2022)",
  "key": {"[1]": {"test_system": "MDA-MB-231 tumour tissue, liver, thyroid", "experiment": "Apoptosis (TUNEL) staining of ex vivo tissue sections", "assay_type": "in vivo, NOD/SCID mice", "procedure": "Organs excised and retrieved from control (n = 3) and therapy mice (n = 3) were fixed with 4% PFA overnight at 4 °C. For cryopreservation, the organs were kept for 2–3 days at 4 °C in 30% sucrose Cryosections (6 µm) of excised and preserved organs were made using a cryostat (Leica, CM3050S). For TUNEL fluorescence quantification, therapy mice (n = 3) and control mice (n = 3) slices were stained simultaneously. The TUNEL staining kit (Roche # 11684795910) was used and protocol was followed as mentioned in the staining kit. Tissues were washed with PBS and permeabilised with 0.1 % Triton-X in 0.1 % […] on ice for 2 min. Following permeabilization, sections were incubated with TUNEL reaction mixture (Fluorescence labelled Terminal deoxynucleotidyl transferase enzyme dissolved in nucleotide buffer) for 1 h at 37 °C. After PBS wash, the cells were mounted with RotiMount® Vectashield containing DAPI and analysed using fluorescence microscopy (Zen Lite, Carl Zeiss). The images were processed and quantified using CellProfiler 3.0 software."}, "MDA-MB-231 cells [2]": {"test_system": "MDA-MB-231 cells", "set-up": "method as in PMID 35008392", "conditions": "cited from earlier work"}, "MDA-MB-468": {"test_system": "MDA-MB-468", "experiment": "Nuclear uptake, subcellular fractionation with gamma counter", "assay_type": "cell-based", "conditions": "24 h, 1 MBq/10^6 cells", "procedure": "(§1) Breast cancer cells were seeded (0.5 × 10^6) in a 12-well plate and treated with [^125I]PARPi-01 (1 MBq/10^6 cells) for 24 h. Subcellular fractionation was performed using a Subcellular Fractionation kit (ThermoFischer inc., #78840. Protein concertation was assessed using BCA assay. SDS-PAGE was performed using the fractions (30 µg/lane) and Any KD Mini-Protean TGX gels (90 V for 1.5 h). The separated proteins were transferred to PVDF membranes using a wet blotting (60 V, 2 h) technique. The blots were then blocked with 1% Milk/TBST and incubated with a primary antibody (anti-PARP1 (1:1000); Abcam ab227244; anti-GAPDH (1:4000); cell signalling 14C10, or anti-Histon H3 1:1000) Abcam ab1791). For the phosphorimager analysis, after blotting, the blots were sandwiched with a Fujifilm Imaging plate for Bioanalyzer (BAS-MS 2040), and incubated overnight, and the protein bound activity was imaged using a phosphorimager (Typhoon FLA 7000 version 1.2). To assess the tracer uptake, both fractions were measured using a gamma counter (Wizard^2, Perkin Elmer, USA)."}, "MCF-7": {"test_system": "MCF-7", "experiment": "Nuclear uptake, subcellular fractionation with gamma counter", "assay_type": "cell-based", "conditions": "24 h, 1 MBq/10^6 cells", "procedure": "as §1"}, "MDA-MB-231": {"test_system": "MDA-MB-231", "experiment": "Nuclear uptake, subcellular fractionation with gamma counter", "assay_type": "cell-based", "conditions": "24 h, 1 MBq/10^6 cells", "procedure": "as §1"}, "[3]": {"experiment": "Time activity analysis of organ activity (biodistribution, therapy study and SPECT/CT data pooled)", "assay_type": "in vivo, NOD/SCID mice", "procedure": "For biodistribution, animals imaged at 4 h p.i. were killed 24 h p.i., while the ones scanned 24 h p.i. were killed 5 days p.i.. Subsequently, organs were excised, weighed, and assayed for radioactivity in a gamma counter. Mean tumour and organ uptake was determined from decay-corrected tissue radioactivity normalized to injected dose and tissue sample weight (%ID/g tissue wet weight).\nAll statistical analyses were performed using the Graph-Pad Prism software (Version 9.1.1). Biodistribution data is expressed as mean ± standard deviation. Kaplan–Meier Survival curve was analysed using survival analysis (Log rank Mantel-Cox test). The data points of the normalized tumour volume as a function of the time of the groups (Control, ^125I-PARPi, Control—excluded ulcers, ^125I-PARPi—excluded ulcers) were subjected to nonlinear regression analysis using the exponential growth formula Y = Y0*exp(k*x) (Malthusian). Accordingly, the doubling time is equal to ln(2)/k. […] During regression analysis, the best-fit value k was compared between two datasets each using the extra sum-of-squares F test, testing the null hypothesis that k is the same for both datasets. Time activity analysis was performed using nonlinear exponential decay curve fitting and area under the curve was computed using the Graph-Pad Prism software. The area under the curve is expressed as total peak area ± standard error. For statistical analysis of fluorescent signals, unpaired t-test was used.\nAuger emitter-based therapeutic effect was assessed upon application of [^125I]PARPi-01 in 4 doses (8.15 ± 2.96 MBq/dose) with 10 days between each dose in subcutaneous MDA-MB-231 models (Fig. 3A). The fractionated therapy was designed based on two recent publications. In the study by Riad et al., a good tumour response without severe toxicity in normal tissue after application of 30 MBq ^125I-labeled PARPi was shown. […] Furthermore we observed DNA damage upon low dose PARPi application in our in-vitro experiments in the MDA-MB-231 cell line. […] To avoid any handling bias in calliper measurements, only CT-image-based tumour growth was analysed. […] A significant delay in tumour growth was observed upon [^125I]PARPi-01 treatment showing doubling time of 14.2 d (95% CI: 12.6 d to 16.1 d) (Fig. 3B, Additional file 1: Fig. S3). Comparing the treatment group with the control (with and without exclusion of animals with ulcers) we could see a significant difference between the k values (P < 0.0001 and P = 0.0038, respectively) and thus also the doubling time. […] A significant portion of the mice in both the control group and the therapy group were sacrificed due to reaching humane endpoints not related to tumour size. 2 mice were sacrificed due to ascites and 10 mice were sacrificed due to ulcer formation on the tumour site. […] Considering only this selection of mice, median survival time was 35 and 38 for control and therapy mice, respectively. Since, as shown for ^177Lu labelled tracer, data (SUV, concentration) calculated based on SPECT images correlate with those obtained by gamma counting, liver, tumour, and muscle were excised for subsequent gamma counter measurements. To obtain the time activity curve and tracer retention time in each organ, the decay corrected activity (%ID/g) from the biodistribution study, therapy study and also organ activity calculated from SPECT/CT images at 4 h and 24 h p.i. were taken together and plotted over time for liver (Fig. 3D), tumour (Fig. 3E) and muscle (Fig. 3F). Tracer uptake in liver was at a peak of 3.84%ID/g at 4 h p.i. and dropped over time to 0.411%ID/g (8d p.i.). […] The peak uptake of muscle was only 0.186%ID/g at 4 h p.i. and decreased to 0.002%ID/g at 8 d p.i. The overall area under the curve (retention time) in tumour was 26.53 ± 2.35 h/g as opposed to a liver retention of 284 ± 45.02 h/g, whereas the retention time of muscle was only 5.918 ± 0.98 h/g."}, "MDA-MB-231 cells [4]": {"test_system": "MDA-MB-231 cells", "set-up": "method as in PMID 35008392", "conditions": "cited from earlier work", "remark": "listed apart in the source"}, "[5]": {"conditions": "total peak area ± standard error"}},
  "note": "“Also recorded” adds a separate entry of the source.",
  "data": [
    {"smiles": "O=C(c1ccc([125I])cc1)N1CCN(C(=O)c2cc(Cc3n[nH]c(=O)c4ccccc34)ccc2F)CC1", "note": "[[^125I]PARPi-01]", "values": [
      {"measurement": "apoptosis in liver or thyroid", "setting": "[1]; therapy group", "value": "did not show any noticeable apoptosis; also recorded: no noticeable apoptosis"},
      {"measurement": "percentage of nuclei in tumour positive for apoptosis", "setting": "[1]; therapy group n = 3, P < 0.05 vs control", "value": "52.5 ± 19.0", "unit": "%"},
      {"measurement": "level of apoptosis induction", "setting": "MDA-MB-231 cells [2]", "value": "remained comparable low"},
      {"measurement": "nuclear tracer localization, of total tracer", "setting": "MDA-MB-468", "value": "> 75", "unit": "%"},
      {"measurement": "nuclear tracer localization, of total tracer", "setting": "MCF-7", "value": "more than 40%"},
      {"measurement": "nuclear tracer localization, of total tracer", "setting": "MDA-MB-231", "value": "> 75", "unit": "%"},
      {"measurement": "tracer accumulation in tumour", "setting": "[3]; 4 h p.i.", "value": 0.7219, "unit": "%ID/g"},
      {"measurement": "tracer uptake in liver", "setting": "[3]; 4 h p.i. (peak)", "value": 3.84, "unit": "%ID/g"},
      {"measurement": "uptake of muscle", "setting": "[3]; 4 h p.i. (peak)", "value": 0.186, "unit": "%ID/g"},
      {"measurement": "tracer accumulation in tumour", "setting": "[3]; 24 h", "value": 0.2, "unit": "% ID/g"},
      {"measurement": "tracer accumulation in tumour", "setting": "[3]; 8 days", "value": 0.02, "unit": "%"},
      {"measurement": "tracer uptake in liver", "setting": "[3]; 8 d p.i.", "value": 0.411, "unit": "%ID/g"},
      {"measurement": "uptake of muscle", "setting": "[3]; 8 d p.i.", "value": 0.002, "unit": "%ID/g"},
      {"measurement": "area under the curve (retention time) in liver", "setting": "[3]; [5]", "value": "284 ± 45.02", "unit": "h/g"},
      {"measurement": "area under the curve (retention time) in muscle", "setting": "[3]; [5]", "value": "5.918 ± 0.98", "unit": "h/g"},
      {"measurement": "area under the curve (retention time) in tumour", "setting": "[3]; [5]", "value": "26.53 ± 2.35", "unit": "h/g"},
      {"measurement": "colony formation after treatment", "setting": "MDA-MB-231 cells [4]", "value": "significant reduction in colony formation"}
    ]}
  ]
}
